Source: patent US6461997B1, “Triazole sulfones having herbicidal activity” (Monsanto Technology LLC, priority 1999, dated 2002)

How the values were obtained:
[1] = system: LAMPU (purple deadnettle); test: Pre-emergence herbicidal activity, cool season; format: in vivo, Lamium purpureum; conditions: lowest tested rate with 80% or greater inhibition; rates 300, 100, 30, 10 g/ha; about 14 days
Summary of the method: (§1)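 GR80 values derive from percent inhibition relative to untreated plants, read roughly 14 days after sowing and pre-emergence soil-surface treatment (compound in 50:50 acetone/water; rates typically 10, 30, 100, 300 g/ha). Warm-season weeds grew at 30/21° C day/night, cool-season ones at 18/13° C; an asterisk marks activity without reaching 80% at the highest rate.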

LOLMG (annual ryegrass) = test: Pre-emergence herbicidal activity, cool season; format: in vivo, Lolium multiflorum; conditions: GR80 = lowest tested rate (300, 100, 30, 10 g/ha) with 80% or greater inhibition; approx. 14 days after treating; 18/13° C.
Experimental: (§2) Tables 5 to 8 summarize results of tests conducted as described below to determine the pre-emergence herbicidal activity, in the form of a GR80 value, of illustrative compounds of this invention. […] Compounds of the invention were typically applied at rates of 300, 100, 30, and 10 g/ha. Where herbicidal activity was evident but 80% inhibition was not achieved at the highest rate tested, an asterisk (*) is shown in the following tables.
(§3) The pre-emergence tests were conducted by the following procedure. Topsoil was sieved to pass through a 1.27 cm screen. Fertilizer was added to the topsoil and the mixture was then sterilized by heating. The topsoil mixture was placed in a pot and compacted to a depth of 1.0 to 1.25 cm from the top of the pot. Seeds of each of several monocotyledonous and dicotyledonous annual plant species were placed on top of the soil. Additional soil was subsequently placed over the seeds to level-fill the pot. A known amount of each test compound dissolved or suspended in an appropriate organic solvent was diluted with a 50:50 mix of acetone and water and applied to the surface of the soil. After treatment the plants were placed in a greenhouse where they received 0.64 cm of overhead irrigation. All subsequent watering consisted of a light overhead mist and/or subirrigation as needed for germination and growth. Tables 5 and 6 below relate to warm season plant species which were placed after pre-emergence treatment in a greenhouse with a 30/21° C. day/night temperature regime. Tables 7 and 8 below relates to cool season plant species placed after pre-emergence treatment in a greenhouse or growth chamber with an 18/13° C. day/night temperature regime.
(§4) Approximately 14 days after planting and treating, the plants were observed and herbicidal efficacy recorded as percent inhibition by comparison with untreated plants.
(§5) The plant species usually regarded as weeds which were utilized in the tests are identified in the tables below according to the following legend, in which “d” indicates a dicotyledonous species and “m” a monocotyledonous species. All monocotyledonous species included in the tests herein are grasses.

ALOMY (blackgrass) = test: Pre-emergence herbicidal activity, cool season; format: in vivo, Alopecurus myosuroides; conditions: GR80 = lowest tested rate (300, 100, 30, 10 g/ha) with 80% or greater inhibition; approx. 14 days after treating; 18/13° C.
Experimental: as §2, §3, §4, §5

[2] = system: VERPE (creeping speedwell); test: Pre-emergence herbicidal activity, cool season; format: in vivo, Veronica persicaria; conditions: lowest tested rate with 80% or greater inhibition; rates 300, 100, 30, 10 g/ha; about 14 days
Summary of the method: as §1

STEME (common chickweed) = test: Pre-emergence herbicidal activity, cool season; format: in vivo, Stellaria media; conditions: lowest tested rate with 80% or greater inhibition; rates 300, 100, 30, 10 g/ha; about 14 days
Summary of the method: as §1

[3] = system: CHEAL (common lambsquarters); test: Pre-emergence herbicidal activity, warm season; format: in vivo, Chenopodium album; conditions: GR80 = lowest tested rate (300, 100, 30, 10 g/ha) with 80% or greater inhibition; approx. 14 days after treating; 30/21° C.
Experimental: as §2, §3, §4, §5

SETVI (green foxtail) = test: Pre-emergence herbicidal activity, cool season; format: in vivo, Setaria viridis; conditions: GR80 = lowest tested rate (300, 100, 30, 10 g/ha) with 80% or greater inhibition; approx. 14 days after treating; 18/13° C.
Summary of the method: as §1

[4] = system: AGSST (creeping bentgrass); test: Pre-emergence herbicidal activity, cool season; format: in vivo, Agrostis stolonifera; conditions: GR80 = lowest tested rate (300, 100, 30, 10 g/ha) with 80% or greater inhibition; approx. 14 days after treating; 18/13° C.
Summary of the method: as §1

[5] = system: GALAP (catchweed bedstraw); test: Pre-emergence herbicidal activity, cool season; format: in vivo, Galium aparine; conditions: lowest tested rate with 80% or greater inhibition; rates 300, 100, 30, 10 g/ha; about 14 days
Summary of the method: as §1

AMARE (redroot pigweed) = test: Pre-emergence herbicidal activity, warm season; format: in vivo, Amaranthus retroflexus; conditions: GR80 = lowest tested rate (300, 100, 30, 10 g/ha) with 80% or greater inhibition; approx. 14 days after treating; 30/21° C.
Experimental: as §2, §3, §4, §5

POLCO (wild buckwheat) = test: Pre-emergence herbicidal activity, cool season; format: in vivo, Polygonum convolvulus; conditions: lowest tested rate with 80% or greater inhibition; rates 300, 100, 30, 10 g/ha; about 14 days
Summary of the method: (§6)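 Activity is expressed as the rate giving 80% inhibition, with 300, 100, 30 and 10 g/ha typically tested. An asterisk marks activity short of 80% at the top rate. Warm-season grasses were held at 30/21 °C; cool-season blackgrass and wild buckwheat at 18/13 °C; scoring at about 14 days.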

[6] = system: SORHA (johnsongrass (seedling)); test: Pre-emergence herbicidal activity, warm season; format: in vivo, Sorghum halepense; conditions: GR80 = lowest tested rate (300, 100, 30, 10 g/ha) with 80% or greater inhibition; approx. 14 days after treating; 30/21° C.
Experimental: as §2, §3, §4, §5

[7] = system: PANMI (wild proso millet); test: Pre-emergence herbicidal activity, warm season; format: in vivo, Panicum miliaceum; conditions: GR80 = lowest tested rate (300, 100, 30, 10 g/ha) with 80% or greater inhibition; approx. 14 days after treating; 30/21° C.
Summary of the method: as §6

SINAR (wild mustard) = test: Pre-emergence herbicidal activity, cool season; format: in vivo, Sinapis arvensis; conditions: lowest tested rate with 80% or greater inhibition; rates 300, 100, 30, 10 g/ha; about 14 days
Summary of the method: as §1

ECHCG (barnyardgrass) = test: Pre-emergence herbicidal activity, warm season; format: in vivo, Echinochloa crus-galli; conditions: GR80 = lowest tested rate (300, 100, 30, 10 g/ha) with 80% or greater inhibition; approx. 14 days after treating; 30/21° C.
Summary of the method: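 Seeds sown in sterilised fertilised topsoil received surface-applied compound in 50:50 acetone/water, typically at 300, 100, 30 and 10 g/ha, then greenhouse-grown at 30/21° C (warm-season species) or 18/13° C (cool-season species). Percent inhibition versus untreated plants was scored at about 14 days, giving GR80; an asterisk marks activity short of 80% at the top rate.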

SASKR (russian thistle) = test: Pre-emergence herbicidal activity, cool season; format: in vivo, Salsola kali; conditions: lowest tested rate with 80% or greater inhibition; rates 300, 100, 30, 10 g/ha; about 14 days
Summary of the method: as §1

SETFA (giant foxtail) = test: Pre-emergence herbicidal activity, warm season; format: in vivo, Setaria faberi; conditions: GR80 = lowest tested rate (300, 100, 30, 10 g/ha) with 80% or greater inhibition; approx. 14 days after treating; 30/21° C.
Experimental: as §2, §3, §4, §5

[8] = system: BRAPP (broadleaf signalgrass); test: Pre-emergence herbicidal activity, warm season; format: in vivo, Brachiaria platyphylla; conditions: GR80 = lowest tested rate (300, 100, 30, 10 g/ha) with 80% or greater inhibition; approx. 14 days after treating; 30/21° C.
Experimental: as §2, §3, §4, §5

DIGSA (large crabgrass) = test: Pre-emergence herbicidal activity, warm season; format: in vivo, Digitaria sanguinalis; conditions: GR80 = lowest tested rate (300, 100, 30, 10 g/ha) with 80% or greater inhibition; approx. 14 days after treating; 30/21° C.
Experimental: as §2, §3, §4, §5

ABUTH (velvetleaf) = test: Pre-emergence herbicidal activity, warm season; format: in vivo, Abutilon theophrasti; conditions: GR80 = lowest tested rate (300, 100, 30, 10 g/ha) with 80% or greater inhibition; approx. 14 days after treating; 30/21° C.
Experimental: as §2, §3, §4, §5

DATST (jimsonweed) = test: Pre-emergence herbicidal activity, warm season; format: in vivo, Datura stramonium; conditions: GR80 = lowest tested rate (300, 100, 30, 10 g/ha) with 80% or greater inhibition; approx. 14 days after treating; 30/21° C.
Experimental: as §2, §3, §4, §5

CCCN(CC)C(=O)n1cnc(S(=O)(=O)C(F)(F)Br)n1 [Example 39]
Pre-emergence activity GR80, LAMPU [1]: 30 g/ha | Pre-emergence activity (GR80) LOLMG (LOLMG (annual ryegrass)): 300 g/ha | Pre-emergence activity (GR80) ALOMY (ALOMY (blackgrass)): 300 g/ha | Pre-emergence activity GR80, VERPE [2]: 10 g/ha | Pre-emergence activity GR80, STEME (STEME (common chickweed)): 30 g/ha | Pre-emergence activity (GR80) CHEAL [3]: 300 g/ha | Pre-emergence activity (GR80) SETVI (SETVI (green foxtail)): 100 g/ha | Pre-emergence activity (GR80) AGSST [4]: 30 g/ha | Pre-emergence activity GR80, GALAP [5]: 100 g/ha | Pre-emergence activity (GR80) AMARE (AMARE (redroot pigweed)): 300 g/ha | Pre-emergence activity GR80, POLCO (POLCO (wild buckwheat)): 100 g/ha | Pre-emergence activity (GR80) SORHA [6]: 100 g/ha | Pre-emergence activity (GR80) PANMI [7]: 300 g/ha | Pre-emergence activity GR80, SINAR (SINAR (wild mustard)): 30 g/ha | Pre-emergence activity (GR80) ECHCG (ECHCG (barnyardgrass)): 300 g/ha | Pre-emergence activity GR80, SASKR (SASKR (russian thistle)): 100 g/ha | Pre-emergence activity (GR80) SETFA (SETFA (giant foxtail)): 100 g/ha

CCCN(CC)C(=O)n1cnc(S(=O)(=O)C(F)F)n1 [Example 28]
Pre-emergence activity GR80, LAMPU [1]: 30 g/ha | Pre-emergence activity (GR80) LOLMG (LOLMG (annual ryegrass)): 300 g/ha | Pre-emergence activity (GR80) ALOMY (ALOMY (blackgrass)): 30 g/ha | Pre-emergence activity GR80, VERPE [2]: 10 g/ha | Pre-emergence activity GR80, STEME (STEME (common chickweed)): 10 g/ha | Pre-emergence activity (GR80) SETVI (SETVI (green foxtail)): 30 g/ha | Pre-emergence activity (GR80) AGSST [4]: 30 g/ha | Pre-emergence activity GR80, GALAP [5]: 30 g/ha | Pre-emergence activity (GR80) BRAPP [8]: 300 g/ha | Pre-emergence activity (GR80) AMARE (AMARE (redroot pigweed)): 300 g/ha | Pre-emergence activity GR80, POLCO (POLCO (wild buckwheat)): [empty] | Pre-emergence activity (GR80) PANMI [7]: 300 g/ha | Pre-emergence activity GR80, SINAR (SINAR (wild mustard)): 10 g/ha | Pre-emergence activity GR80, SASKR (SASKR (russian thistle)): 30 g/ha | Pre-emergence activity (GR80) DIGSA (DIGSA (large crabgrass)): 300 g/ha

CON(C)C(=O)n1cnc(S(=O)(=O)C(F)(F)Cl)n1 [Example 93]
Pre-emergence activity GR80, LAMPU [1]: [empty] | Pre-emergence activity GR80, VERPE [2]: 300 g/ha | Pre-emergence activity GR80, STEME (STEME (common chickweed)): [empty] | Pre-emergence activity GR80, GALAP [5]: [empty] | Pre-emergence activity GR80, POLCO (POLCO (wild buckwheat)): [empty] | Pre-emergence activity (GR80) ABUTH (ABUTH (velvetleaf)): 100 g/ha | Pre-emergence activity GR80, SINAR (SINAR (wild mustard)): [empty] | Pre-emergence activity GR80, SASKR (SASKR (russian thistle)): [empty]

C#CCN(C)C(=O)n1cnc(S(=O)(=O)C(F)(F)C(F)F)n1 [Example 66]
Pre-emergence activity GR80, LAMPU [1]: [empty] | Pre-emergence activity GR80, VERPE [2]: 100 g/ha | Pre-emergence activity GR80, STEME (STEME (common chickweed)): [empty] | Pre-emergence activity GR80, GALAP [5]: [empty] | Pre-emergence activity GR80, POLCO (POLCO (wild buckwheat)): 300 g/ha | Pre-emergence activity (GR80) ABUTH (ABUTH (velvetleaf)): 300 g/ha | Pre-emergence activity GR80, SINAR (SINAR (wild mustard)): [empty] | Pre-emergence activity GR80, SASKR (SASKR (russian thistle)): 300 g/ha

CCSC(F)(F)S(=O)(=O)c1ncn(C(=S)N(CC)CC)n1 [Example 58]
Pre-emergence activity GR80, LAMPU [1]: 300 g/ha | Pre-emergence activity (GR80) DATST (DATST (jimsonweed)): 300 g/ha | Pre-emergence activity GR80, VERPE [2]: 300 g/ha | Pre-emergence activity GR80, STEME (STEME (common chickweed)): 300 g/ha | Pre-emergence activity (GR80) CHEAL [3]: 300 g/ha | Pre-emergence activity (GR80) SETVI (SETVI (green foxtail)): 300 g/ha | Pre-emergence activity GR80, GALAP [5]: 300 g/ha | Pre-emergence activity GR80, POLCO (POLCO (wild buckwheat)): 300 g/ha | Pre-emergence activity GR80, SINAR (SINAR (wild mustard)): [empty] | Pre-emergence activity GR80, SASKR (SASKR (russian thistle)): 300 g/ha
